# Data taken from US7723071B2 (priority 1992, dated 2010).
# Peptide text beside a SMILES is read from it.
# Experiments:
# [1] = target: DOR-1 clone (delta opioid receptor) (Mus musculus, UniProt P32300, V68C)
# [2] = target: receptor encoded by the DOR-1 clone (delta opioid receptor) (Mus musculus, UniProt P32300, V68C)
# [3] = target: T1, DOR-2 (mMOR-1) mu receptor (Mus musculus, UniProt P42866, H54D/R258Q/R47P/S53N/V245G); assay type: binding, murine
# T1 construct: expressed in transfected cells
# T1 sequence (P42866 whole entry R47P/S53N/H54D/V245G/R258Q): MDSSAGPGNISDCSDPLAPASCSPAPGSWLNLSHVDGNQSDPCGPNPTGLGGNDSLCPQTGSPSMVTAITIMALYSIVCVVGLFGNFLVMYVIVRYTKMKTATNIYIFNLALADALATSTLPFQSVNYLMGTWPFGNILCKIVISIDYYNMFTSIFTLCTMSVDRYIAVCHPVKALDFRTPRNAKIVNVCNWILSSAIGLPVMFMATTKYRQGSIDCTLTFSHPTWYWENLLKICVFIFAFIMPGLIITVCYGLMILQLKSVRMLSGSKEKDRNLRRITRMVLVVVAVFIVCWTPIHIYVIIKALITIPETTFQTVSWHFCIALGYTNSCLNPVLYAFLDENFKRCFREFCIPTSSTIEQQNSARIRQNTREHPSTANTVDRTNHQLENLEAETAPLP
# Text for opiate receptors: The purification of mono-iodinated from di-iodinated and non-iodinated DADLE by the HPLC step yields a ligand with very high specific activity (approximately 2000 Ci/mmol).
# Chain of receptor encoded by the DOR-1 clone (delta opioid receptor) (P32300 whole entry V68C): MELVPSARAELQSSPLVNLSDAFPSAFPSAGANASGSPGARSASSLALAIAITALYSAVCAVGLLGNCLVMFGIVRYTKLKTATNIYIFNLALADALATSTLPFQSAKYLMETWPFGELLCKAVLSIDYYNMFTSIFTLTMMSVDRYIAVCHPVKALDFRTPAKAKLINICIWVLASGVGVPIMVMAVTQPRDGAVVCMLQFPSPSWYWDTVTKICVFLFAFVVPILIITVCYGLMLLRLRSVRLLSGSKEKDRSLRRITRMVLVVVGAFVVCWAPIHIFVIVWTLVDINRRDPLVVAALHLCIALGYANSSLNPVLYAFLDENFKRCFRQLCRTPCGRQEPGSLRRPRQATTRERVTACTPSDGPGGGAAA
# Chain of DOR-1 clone (delta opioid receptor) (P32300 whole entry V68C): as above
Compound,displacement of 125I-DADLE binding [1],displacement of 3H-diprenorphine [2],"displacement of 3H-diprenorphine, rank in decreasing order of affinity [2]",displacement of 3H-DPN [3],binding affinity compared with DADLE (opiate receptors)
CN1CC[C@]23CCCC[C@H]2[C@H]1Cc1ccc(O)cc13 [levorphanol],did displace,displaced,"in decreasing order of affinity, was observed with diprenorphine, etorphine, levorphanol and morphine",,
"C[C@@H](NC(=O)[C@@H](N)Cc1ccc(O)cc1)C(=O)NCC(=O)N(C)[C@@H](Cc1ccccc1)C(=O)NCCO [DAGO, D-Alka^2-N-MePhe^4-Gly-ol^5-enkephalin]",did not displace,Only weak displacement,,displacement of ^3H-DPN by nanomolar concentrations,
"mono-^125I-2dAla, 5dLeu enkephalin [^125I-DADLE]",,,,,slightly lower
NC(=O)[C@@H]1CCCN1C(=O)[C@H](Cc1ccccc1)NC(=O)[C@@H]1CCCN1C(=O)[C@@H](N)Cc1ccc(O)cc1 [morphiceptin] (H-YPFP-NH2),,,,displacement of ^3H-DPN by nanomolar concentrations,
